Patent US6455535B1, “Substituted aminoquinazolinone (thione) derivatives or salts thereof, intermediates thereof, and pest controllers and a method for using the same” (Nihon Nohyaku Co., Ltd., priority 1999, dated 2002)

What was measured:
[1] = tested on: greenhouse whitefly (Trialeurodes vaporariorum); assay: Insecticidal test on greenhouse whitefly, tomato leaf spray (Test Example 3); format: in vivo; conditions: 100 ppm test liquid sprayed on tomato leaf, 20 adults inoculated; for mortality at 100 ppm: Trialeurodes vaporariorum, read-out: insecticidal effect rating (mortality of adults)
Description: Insecticidal Test on Greenhouse Whitefly (Trialeurodes vaporariorum)
Each compounds of the present invention listed in Table 3 and Table 4 was dispersed in and diluted with water to prepare a test liquid containing 100 ppm of the test compound. By use of a spraygun, the test liquid was sprayed on the surface of a leaf of tomato plant put in a 20 ml-vial bottle containing water on a turn table. After air-dried, the leaf treated with the test liquid was put in a glass cylinder, and inoculated with 20 adults of greenhouse whitefly thereon. After the inoculation, the leaf was placed in a greenhouse, and the number of adults of greenhouse whitefly was counted. The mortality of the adults was calculated similar to that of conducted in Test Example 2, and the insecticidal effect of each one of the test compounds was evaluated by the method identical to Test Example 1.

[2] = tested on: brown rice planthopper (Nilaparvata lugens); assay: whole plant or invertebrate; format: in vivo; conditions: 192 h, rice seedlings immersed 30 seconds, 10 third-instar nymphs, eight days after inoculation, read-out: insecticidal effect rating (corrected larval mortality)
Source text: Insecticidal Effect on Brown Rice Planthopper (Nilaparvata lugens)
Each substituted aminoquinazolinone (thione) derivative of the general formula (I) or salt thereof of the present invention listed in Tables 3 and 4 was dispersed in and diluted with water to obtain a 500 ppm liquid chemical. Rice seedlings (cultivar: Nihonbare) were immersed in the liquid chemical for 30 seconds and air-dried, after which each seedling was placed in a glass test tube and inoculated with 10 third-instar nymphs of brown rice planthopper, and the test tube was pluged with a cotton plug. Eight days after the inoculation, the dead and alive were counted. The mortality was calculated by the following equation and the control effect was judged according to the criterion described below.
Corrected larval mortality (%)={(Ca/c−Ta/T)/Ca/c}×100
Ta: number of alive nymphs in treated groups
T: number of inoculated nymphs in treated groups
Ca: number of alive numphs in untreated groups
c: number of inoculated nymphs in untreated groups
Criterion: the same as in Test Example 1.

SMILES | mortality at 100 ppm [1] [%] | mortality at 500 ppm [2] [%] | insecticidal effect rating (mortality of adults) [1]
O=C1Nc2ccc(OC(F)(F)F)cc2CN1/N=C/c1cccnc1 [Compound No. 30, 3-(3-pyridylmethylideneamino)-3,4-dihydro-6-trifluoromethoxy-2(1H)-quinazolinone] | 100 | 100 | –
O=C1Nc2ccc(OC(F)(F)F)cc2CN1NCc1cccnc1 [Compound No. 208, 3-(3-pyridylmethylamino)-3,4-dihydro-6-trifluoromethoxy-2(1H)-quinazolinone] | 100 | 100 | –
O=C1Nc2ccc(I)cc2CN1N=Cc1cccnc1 [compound 10] | – | – | D or higher
O=C1Nc2ccc(C(F)(F)F)cc2CN1N=Cc1cccnc1 [compound 14] | – | – | D or higher
O=C1Nc2ccc(OC(F)F)cc2CN1N=Cc1cccnc1 [compound 38] | – | – | D or higher
CCOC(=O)c1ccc2c(c1)CN(N=Cc1cccnc1)C(=O)N2 [compound 78] | – | – | D or higher
O=C1Nc2ccc(-c3ccccc3)cc2CN1N=Cc1cccnc1 [compound 86] | – | – | D or higher
O=C1Nc2ccc(-c3ccc(Cl)cc3)cc2CN1N=Cc1cccnc1 [compound 90] | – | – | D or higher
